Reference: article PMC10512030, “Prolidase-proline oxidase axis is engaged in apoptosis induction by birch buds flavonol santin in endometrial adenocarcinoma cell line” (Frontiers in Molecular Biosciences, 2023)

Tests used:
Format in all cases: cell-based, human
[1] = tested on: endometrial adenocarcinoma Ishikawa cells; assay: Cell viability MTT assay, Ishikawa; conditions: Homo sapiens
p53 = assay: Western immunoblot of p53 in treated cells; conditions: 48 h; for expression of p53 (Western blot): Ishikawa cells
Method: Adherent and floating cells were harvested and sonicated. Obtained homogenates were supplemented with 1% protease and phosphatase inhibitor cocktail (#78440, Thermo Fisher Scientific). The Lowry assay was performed to quantify protein content in the homogenates. Proteins (20–40 μg) were resolved on 7.5%, 10%, or 12% SDS-PAGE gels using the Mini-Protean Tetra system (Bio-Rad). Proteins were transferred to nitrocellulose membranes (Bio-Rad) using the Mini Trans-Blot Cell wet blotting system (Bio-Rad). Membranes were blocked with 5% skim milk for 1 h at room temperature and probed overnight at 4°C with primary antibodies. The following antibodies purchased from Cell Signaling Technology were used: anti-caspase-9 antibody (#9508, 1:1,000), anti-caspase-8 antibody (#9746, 1:1,000), anti-caspase-3 antibody (#9662, 1:1,000), anti-caspase-7 antibody (#12827, 1:1,000), anti-PARP antibody (#9542, 1:1,000) and anti-cleaved PARP antibody (#5625, 1:1,000); anti-proline oxidase antibody (sc-376401, 1:1,000) and anti-p53 antibody (sc-126, 1:500) were obtained from Santa Cruz Biotechnology; anti-prolidase antibody (STJ27369, 1:1,000) was purchased from St John’s Laboratory and anti-actin antibody (#A2066, 1:2,000) was obtained from Sigma-Aldrich. After extensive washes, a secondary antibody solution in 5% skim milk (anti-mouse IgG-HRP, Sigma-Aldrich, #A9044, 1:5,000 or anti-rabbit IgG-HRP, Sigma-Aldrich, #A9169, 1:5000) was added for 1 h at room temperature. Membranes were incubated with ECL-HRP substrate (GE Healthcare), and the signal was detected using the BioSpectrum Imaging System (Ultra-Violet Products, Ltd.). Intensity of the bands was quantified by densitometric analysis using VisionWorks LS software (Ultra-Violet Products, Ltd.).

[2] = tested on: normal fibroblasts (dermal fibroblasts CCD25Sk); assay: Cell viability neutral red uptake assay, fibroblasts; conditions: Homo sapiens, Fibroblast, read-out: IC50 values ± SD in neutral red uptake assay
HeLa cells [3] = assay: Colony formation assay, HeLa; conditions: then fresh medium 7 days
Ishikawa cells [4] = assay: Apoptosis assay, annexin V-FITC / propidium iodide flow cytometry, Ishikawa; conditions: 48 h
[5] = tested on: cervical adenocarcinoma HeLa cells; assay: Cell viability MTT assay, HeLa; conditions: Homo sapiens, HeLa, HeLa
[6] = tested on: cervical adenocarcinoma HeLa cells; assay: Cell viability neutral red uptake assay, HeLa; conditions: Homo sapiens
[7] = tested on: endometrial adenocarcinoma Ishikawa cells; assay: Cell viability neutral red uptake assay, Ishikawa; conditions: Homo sapiens
[8] = tested on: breast epithelial cells MCF 10A; assay: Cell viability MTT assay, MCF 10A; conditions: Homo sapiens, 48 h
Ishikawa cells [9] = assay: Colony formation assay, Ishikawa; conditions: then fresh medium 7 days
HeLa cells [10] = assay: Apoptosis assay, annexin V-FITC / propidium iodide flow cytometry, HeLa; conditions: 48 h
prolidase [11] = assay: Western immunoblot of prolidase in treated cells; conditions: santin, 48 h
Method: Adherent and floating cells were harvested and sonicated. Obtained homogenates were supplemented with 1% protease and phosphatase inhibitor cocktail (#78440, Thermo Fisher Scientific). The Lowry assay was performed to quantify protein content in the homogenates. Proteins (20–40 μg) were resolved on 7.5%, 10%, or 12% SDS-PAGE gels using the Mini-Protean Tetra system (Bio-Rad). Proteins were transferred to nitrocellulose membranes (Bio-Rad) using the Mini Trans-Blot Cell wet blotting system (Bio-Rad). Membranes were blocked with 5% skim milk for 1 h at room temperature and probed overnight at 4°C with primary antibodies. […] Membranes were incubated with ECL-HRP substrate (GE Healthcare), and the signal was detected using the BioSpectrum Imaging System (Ultra-Violet Products, Ltd.). Intensity of the bands was quantified by densitometric analysis using VisionWorks LS software (Ultra-Violet Products, Ltd.).

[12] = tested on: normal fibroblasts (dermal fibroblasts CCD25Sk); assay: Cell viability MTT assay, fibroblasts; conditions: Homo sapiens, Fibroblast, Fibroblasts, read-out: IC50 values ± SD in MTT assay
prolidase [13] = assay: Prolidase activity in homogenates of treated cells; conditions: 48 h
Method: The activity of prolidase in cell homogenates was determined according to the method of ([Myara et al., 1982]). Briefly, prolidase was activated by overnight incubation of homogenates with 1 mM MnCl2 at 37°C. Then, the substrate (Gly-Pro, 100 mM) was added to each sample, followed by incubation at 37°C for 1 h. The reaction was stopped with […] trichloracetic acid and samples were then centrifuged at 15,000 × g for 10 min. After adding acetic acid and Chinard’s reagent to collected supernatant, the mixtures were incubated at 90°C for 10 min. Samples were allowed to come to room temperature and then absorbance was measured at 515 nm. Enzyme activity was reported as nanomoles of proline released from the synthetic substrate during 1 min/mg of total proteins of cell homogenate.

[14] = 48 h, negative control siRNA transfected cells, 48 h, read-out: IC50, MTT assay
[15] = 48 h, non-transfected cells, 48 h, read-out: IC50, MTT assay
[16] = 48 h, p53-silenced cells, 48 h, read-out: IC50, MTT assay
[17] = 48 h, prolidase-silenced cells, 48 h, read-out: IC50, MTT assay
[18] = 48 h, proline oxidase-silenced cells, 48 h, read-out: IC50, MTT assay
[19] = 24 h, NAC treated (2 mM N-acetyl-L-cysteine preincubation 2 h), read-out: IC50, neutral red uptake assay
[20] = 24 h, read-out: IC50 values ± SD in neutral red uptake assay
[21] = 24 h, without NAC, read-out: IC50, neutral red uptake assay
[22] = 48 h, NAC treated (2 mM N-acetyl-L-cysteine preincubation 2 h), read-out: IC50, neutral red uptake assay
[23] = 48 h, read-out: IC50 values ± SD in neutral red uptake assay
[24] = 48 h, without NAC, read-out: IC50, neutral red uptake assay

COc1ccc(-c2oc3cc(O)c(OC)c(O)c3c(=O)c2OC)cc1 [santin, 5,7-dihydroxy-3,6,4′-trimethoxyflavone]
IC50 ([1]; 24 h, read-out: IC50 values ± SD in MTT assay): 12.9 ± 1.1 µM
IC50 [1, 14]: 5.9 ± 0.9 µM
IC50 [1, 15]: 5.7 ± 0.8 µM
IC50 [1, 16]: 5.9 ± 1.1 µM
IC50 [1, 17]: 11.1 ± 1.9 µM
IC50 [1, 18]: 14 ± 2 µM
IC50 ([1]; 48 h, read-out: IC50 values ± SD in MTT assay): 5.1 ± 0.9 µM
p53 level (Western blot) (p53; HeLa cells, santin 6.2–25 μM): significantly upregulated
expression of p53 (Western blot) (p53; santin 6.2–12.5 μM): slightly increased
expression of p53 (Western blot) (p53; santin 25–100 μM): gradually decreased
IC50 ([2]; 24 h): > 50 µM
IC50 ([2]; 48 h): > 50 µM
decrease of number of colonies (HeLa cells [3]; santin 6.2 μM for 48 h): 49%
decrease of number of colonies (HeLa cells [3]; santin 12.5 μM for 48 h): 85%
% early apoptotic cells (annexin V/PI plot, lower right quadrant) (Ishikawa cells [4]; santin 6.2 μM): 35% ± 4%
% late apoptotic cells (annexin V/PI plot, upper right quadrant) (Ishikawa cells [4]; santin 6.2 μM): 15% ± 2%
% early apoptotic cells (annexin V/PI plot, lower right quadrant) (Ishikawa cells [4]; santin 12.5 μM): 55% ± 5%
% late apoptotic cells (annexin V/PI plot, upper right quadrant) (Ishikawa cells [4]; santin 12.5 μM): 21% ± 3%
IC50 ([5]; 24 h, 24 h, read-out: IC50 values ± SD in MTT assay): 17.8 ± 2 µM
IC50 ([5]; 48 h, 48 h, read-out: IC50 values ± SD in MTT assay): 7 ± 0.8 µM
IC50 [5, 14]: 7.3 ± 1.1 µM
IC50 [5, 15]: 7.2 ± 0.9 µM
IC50 [5, 16]: 10.9 ± 1.9 µM
IC50 [5, 17]: 7.8 ± 1 µM
IC50 [5, 18]: 11.2 ± 1.3 µM
IC50 [6, 19]: 25.6 ± 2.4 µM
IC50 [6, 20]: 5.5 ± 1.3 µM
IC50 [6, 21]: 18.2 ± 2 µM
IC50 [6, 22]: 11.6 ± 1.4 µM
IC50 [6, 23]: 5.4 ± 0.8 µM
IC50 [6, 24]: 6.9 ± 1.1 µM
IC50 [7, 19]: 25.6 ± 2.1 µM
IC50 [7, 20]: 6.2 ± 1 µM
IC50 [7, 21]: 12.7 ± 1.3 µM
IC50 [7, 22]: 11 ± 1.4 µM
IC50 [7, 23]: 5.9 ± 1.1 µM
IC50 [7, 24]: 4.8 ± 1 µM
IC50 [8]: 12.1 ± 1.7 µM
decrease of number of colonies (Ishikawa cells [9]; santin 6.2 μM for 48 h): 53%
decrease of number of colonies (Ishikawa cells [9]; santin 12.5 μM for 48 h): 84%
% early apoptotic cells (annexin V/PI plot, lower right quadrant) (HeLa cells [10]; santin 6.2 μM): 27% ± 4%
% late apoptotic cells (annexin V/PI plot, upper right quadrant) (HeLa cells [10]; santin 6.2 μM): 30% ± 3%
% early apoptotic cells (annexin V/PI plot, lower right quadrant) (HeLa cells [10]; santin 12.5 μM): 39% ± 5%
% late apoptotic cells (annexin V/PI plot, upper right quadrant) (HeLa cells [10]; santin 12.5 μM): 38% ± 4%
prolidase expression (Western blot) (prolidase [11]; HeLa cells): downregulated prolidase expression
prolidase expression (Western blot) (prolidase [11]; Ishikawa cells): increased its level
IC50 ([12]; 24 h): > 50 µM
IC50 ([12]; 48 h): > 50 µM
decrease of prolidase activity (minimum value) (prolidase [13]; HeLa cells, 100 μM santin): 71%
increase of prolidase activity (maximum) (prolidase [13]; Ishikawa cells, 50 μM santin): 160%
